Experimental data published in PubChem BioAssay AID256 (DTP/NCI, 2004).
Toxic doses and inconclusive results are not listed. The calls were made as follows: active = survival T/C of 150% or more; inactive = T/C below 125% in these data.

Test system: CD2F1 mice, L1210 leukemia ip, survival T/C
Assay: NCI In Vivo Anticancer Drug Screen. Data for tumor model L1210 Leukemia (intraperitoneal) in CD2F1 (CDF1) mice
Details: endpoint: mean survival time, higher = longer survival
Summary of the method: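 In this screen, transplantable tumors were grown in mice given either the compound or its vehicle. Results were expressed as the treated measurement relative to the control measurement.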

[1] = dose: 100.0 mg/kg/injection, schedule: Q01DX009 (ip), vehicle: saline with Tween-80
[2] = dose: 200.0 mg/kg/injection, schedule: Q01DX009 (ip), vehicle: saline with Tween-80

Measured: T/C

CC1C(=O)C(=O)C(CCc2ccccc2)C1=O (stereo not drawn)
inactive: [1] 97 % of control | [2] 102 % of control | dose: 400.0 mg/kg/injection, schedule: Q01DX009 (ip), vehicle: saline with Tween-80 109 % of control

C=CCS(=O)(=O)Cc1cccc([N+](=O)[O-])c1
inactive: dose: 100.0 mg/kg/injection, schedule: Q04DX002 (ip), vehicle: Klucel (hydroxypropylcellulose) (HPC) 103 % of control | dose: 200.0 mg/kg/injection, schedule: Q04DX002 (ip), vehicle: Klucel (hydroxypropylcellulose) (HPC) 94 % of control | dose: 400.0 mg/kg/injection, schedule: Q04DX002 (ip), vehicle: Klucel (hydroxypropylcellulose) (HPC) 90 % of control

OCCCC(Sc1ccccc1)c1ccccc1 (stereo not drawn)
inactive: dose: 75.0 mg/kg/injection, schedule: Q04DX003 (ip), vehicle: saline 91 % of control | dose: 150.0 mg/kg/injection, schedule: Q04DX003 (ip), vehicle: saline 101 % of control | dose: 300.0 mg/kg/injection, schedule: Q04DX003 (ip), vehicle: saline 91 % of control

COc1ccc2nc3cc(Cl)ccc3c(Nc3cccc(NS(C)(=O)=O)c3)c2n1
inactive: dose: 12.5 mg/kg/injection, schedule: Q01DX009 (ip), vehicle: other 100 % of control | dose: 25.0 mg/kg/injection, schedule: Q01DX009 (ip), vehicle: other 93 % of control | dose: 50.0 mg/kg/injection, schedule: Q01DX009 (ip), vehicle: other 89 % of control | dose: 100.0 mg/kg/injection, schedule: Q01DX009 (ip), vehicle: other 93 % of control | dose: 200.0 mg/kg/injection, schedule: Q01DX009 (ip), vehicle: other 93 % of control

CC(=O)Nc1ccc(/C=N/NC(=O)CNC(=O)Nc2cccc(C(F)(F)F)c2)cc1
inactive: dose: 50.0 mg/kg/injection, schedule: Q01DX009 (ip), vehicle: saline with Tween-80 88 % of control | [1] 88 % of control | [2] 92 % of control

Nc1ncnc2nc(SCc3ccccc3)[nH]c12
inactive: dose: 12.5 mg/kg/injection, schedule: Q01DX009 (ip), vehicle: Klucel (hydroxypropylcellulose) (HPC) 112 % of control | dose: 25.0 mg/kg/injection, schedule: Q01DX009 (ip), vehicle: Klucel (hydroxypropylcellulose) (HPC) 104 % of control | dose: 50.0 mg/kg/injection, schedule: Q01DX009 (ip), vehicle: Klucel (hydroxypropylcellulose) (HPC) 100 % of control | dose: 100.0 mg/kg/injection, schedule: Q01DX001 (ip), vehicle: Klucel (hydroxypropylcellulose) (HPC) 90 % of control

O=[N+]([O-])/C(=C/c1ccccc1)c1ccccc1
inactive: dose: 6.25 mg/kg/injection, schedule: Q01DX009 (ip), vehicle: saline with Tween-80 107 % of control | dose: 6.25 mg/kg/injection, schedule: Q04DX003 (ip), vehicle: saline with Tween-80 101 % of control | dose: 12.5 mg/kg/injection, schedule: Q01DX009 (ip), vehicle: saline with Tween-80 105 % of control | dose: 12.5 mg/kg/injection, schedule: Q04DX003 (ip), vehicle: saline with Tween-80 97 % of control | dose: 25.0 mg/kg/injection, schedule: Q01DX009 (ip), vehicle: saline with Tween-80 103 % of control | dose: 25.0 mg/kg/injection, schedule: Q04DX003 (ip), vehicle: saline with Tween-80 101 % of control

CCSCCCC(=O)O
inactive: dose: 25.0 mg/kg/injection, schedule: Q01DX009 (ip), vehicle: saline 97 % of control | dose: 50.0 mg/kg/injection, schedule: Q01DX009 (ip), vehicle: saline 93 % of control | dose: 100.0 mg/kg/injection, schedule: Q01DX009 (ip), vehicle: saline 101 % of control | dose: 100.0 mg/kg/injection, schedule: Q04DX003 (ip), vehicle: saline sonified 101 % of control

CCCCC(C)C1(CCC)NC(C)(C)CC(C)O1 (stereo not drawn)
inactive: dose: 100.0 mg/kg/injection, schedule: Q01DX001 (ip), vehicle: saline with Tween-80 97 % of control | dose: 200.0 mg/kg/injection, schedule: Q01DX001 (ip), vehicle: saline with Tween-80 101 % of control
